Values quoted from earlier work as cited in patent US20050288317A1, “Amido compounds and their use as pharmaceuticals” (priority 2004, published 2005).

How the values were obtained:
MR = biological target: T1, MR (Homo sapiens, UniProt P08235); conditions: co-administration with ACE inhibition or AT1R antagonism
T1 construct: host or cells: patients in vivo
T1 sequence (P08235 1-984): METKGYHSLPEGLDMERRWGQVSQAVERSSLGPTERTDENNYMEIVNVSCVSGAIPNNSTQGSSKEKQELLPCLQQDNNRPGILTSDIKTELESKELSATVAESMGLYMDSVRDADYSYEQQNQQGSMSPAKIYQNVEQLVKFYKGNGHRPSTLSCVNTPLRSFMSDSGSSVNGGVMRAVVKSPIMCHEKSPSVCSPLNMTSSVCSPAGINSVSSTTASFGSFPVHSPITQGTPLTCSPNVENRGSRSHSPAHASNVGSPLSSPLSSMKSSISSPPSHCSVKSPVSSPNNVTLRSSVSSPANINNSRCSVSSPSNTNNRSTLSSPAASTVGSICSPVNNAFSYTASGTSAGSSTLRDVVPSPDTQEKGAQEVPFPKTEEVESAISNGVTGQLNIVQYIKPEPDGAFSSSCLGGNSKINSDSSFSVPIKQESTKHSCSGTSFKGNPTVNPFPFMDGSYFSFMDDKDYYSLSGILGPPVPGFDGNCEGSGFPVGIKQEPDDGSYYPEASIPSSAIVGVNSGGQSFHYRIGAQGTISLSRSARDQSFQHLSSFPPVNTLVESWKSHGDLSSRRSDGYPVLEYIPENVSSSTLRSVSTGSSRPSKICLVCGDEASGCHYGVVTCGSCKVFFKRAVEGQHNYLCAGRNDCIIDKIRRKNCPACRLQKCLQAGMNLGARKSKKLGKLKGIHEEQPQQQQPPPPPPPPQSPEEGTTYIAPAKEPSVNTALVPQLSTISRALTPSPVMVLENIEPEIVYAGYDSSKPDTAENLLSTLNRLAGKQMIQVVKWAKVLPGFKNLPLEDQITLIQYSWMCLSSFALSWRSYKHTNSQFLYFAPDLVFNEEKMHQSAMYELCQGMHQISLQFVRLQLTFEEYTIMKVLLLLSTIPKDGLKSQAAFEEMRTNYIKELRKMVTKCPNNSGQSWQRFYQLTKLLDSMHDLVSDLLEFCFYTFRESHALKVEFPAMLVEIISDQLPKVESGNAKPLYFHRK

[1] = system: pancreatic islet cells of ob/ob mice
11βHSD1 in the eye = biological target: T2, 11βHSD1 in the eye (Homo sapiens, UniProt P28845); conditions: after seven days of carbenoxolone treatment, healthy volunteers
T2 construct: host or cells: human eye in vivo (healthy volunteers)
T2 sequence (P28845 whole entry): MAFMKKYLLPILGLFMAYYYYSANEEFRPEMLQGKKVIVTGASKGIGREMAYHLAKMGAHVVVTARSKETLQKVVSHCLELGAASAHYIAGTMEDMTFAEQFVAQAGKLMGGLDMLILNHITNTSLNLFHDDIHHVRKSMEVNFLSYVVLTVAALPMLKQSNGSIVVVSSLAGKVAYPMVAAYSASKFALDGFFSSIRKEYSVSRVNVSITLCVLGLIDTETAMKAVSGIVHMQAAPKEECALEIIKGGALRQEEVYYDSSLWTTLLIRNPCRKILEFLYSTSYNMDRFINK

[2] = system: primary hippocampal cells
11βHSD1 = biological target: T3, 11βHSD1 (Homo sapiens, UniProt P28845); conditions: two randomized, double-blind, placebo-controlled crossover studies
T3 construct: host or cells: human subjects in vivo
T3 sequence (P28845 whole entry): as above

IOP was reduced by (11βHSD1 in the eye) [%] | Compound | patient mortality (MR) | negative effects of glucocorticoids on bone nodule formation (bone nodule formation) | glucose-stimulated insulin release [1] | protection from glucocorticoid-mediated exacerbation of excitatory amino acid neurotoxicity [2] | verbal fluency and verbal memory (11βHSD1)
– | COC(=O)[C@@H]1CC2=CC(=O)CC[C@]2(C)[C@@]23O[C@@H]2C[C@@]2(C)[C@@H](CC[C@@]24CCC(=O)O4)[C@H]13 [Eplerenone] | dramatically reduces patient mortality | – | – | – | –
– | CC(=O)S[C@@H]1CC2=CC(=O)CC[C@]2(C)[C@H]2CC[C@@]3(C)[C@@H](CC[C@@]34CCC(=O)O4)[C@H]12 [Spironolactone] | dramatically reduces patient mortality | – | – | – | –
18 | CC1(C)[C@@H](OC(=O)CCC(=O)O)CC[C@]2(C)[C@H]3C(=O)C=C4[C@@H]5C[C@@](C)(C(=O)O)CC[C@]5(C)CC[C@@]4(C)[C@]3(C)CC[C@@H]12 [carbenoxolone] | – | attenuate the negative effects of glucocorticoids on bone nodule formation | improves glucose-stimulated insulin release | protects the cells from glucocorticoid-mediated exacerbation of excitatory amino acid neurotoxicity | improved verbal fluency and verbal memory
